Patent US12281079B2, “Quinoline derivatives, processes for their preparation and uses thereof for the treatment of cancer” (Lead Discovery Center GmbH, priority 2019, dated 2025)
pIC50: −log10 of the molar value.

What follows are molecules tested against mitochondrial RNA polymerase (POLRMT) (Mus musculus, UniProt Q8BKF1) (assay: Homogeneous TR-FRET assay for mitochondrial transcription activity). Conditions: homogeneous TR-FRET assay according to Example 4.
Type: biochemical
Excerpt: The TR-FRET assay was basically conducted as described in WO2016/193231A1, especially as described in example 1 (hereby incorporated by reference). With respect to the back ground of the mitochondrial transcription it is referred to Falkenberg et al. (2002) and Posse et al. (Posse et al., 2015). The method monitors the activity of mitochondrial RNA-polymerase via detection of the formation of its product, a 407 bp long RNA sequence. Detection of the product is facilitated by hybridization of two DNA-oligonucleotide probes to specific and adjacent sequences within the RNA product sequence. Upon annealing of the probes, two fluorophores that are coupled directly to an acceptor nucleotide probe (ATT0647, 5′) or introduced via a coupled streptavidin interacting with a biotinylated donor nucleotide probe on the other side (Europium cryptate, 3′) are brought into sufficient proximity to serve as a fluorescence-donor-acceptor pair as generally described in Walters and Namchuk (2003). Thus, a FRET signal at 665 nm is generated upon excitation at 340 nm.
Briefly, the protocol described here was applied for screening and activity determination in a low-volume 384-well microtiter plate with non-binding surface. For high-throughput application in the 1536-well microtiter plate format, volumes of the reagent mixes were adjusted, maintaining the volumetric ratio. Proteins POLRMT (NM_172551.3), TFAM (NM_009360.4) and TFB2M (NM_008249.4) were diluted from their stocks to working concentrations of 150 nM, 1.8 μM and 330 nM respectively, in a dilution buffer containing 100 mM Tris-HCl pH 8.0, 200 mM NaCl, 10% (v/v) glycerole, 2 mM glutathione (GSH), 0.5 mM EDTA and 0.1 mg/mL BSA. Protein dilutions and template DNA, comprising a pUC18 plasmid encoding the mitochondrial light strand promoter, restriction linearized proximal to the promoter 3′-end (pUC-LSP), were mixed at the twofold final assay-concentration in a reaction buffer, containing 10 mM Tris-HCl pH 7.5, 10 mM MgCl2, 40 mM NaCl, 2 mM GSH, 0.01% (w/v) Tween-20 and 0.1 mg/mL BSA.
5 μL of this mix were dispensed, depending on the chosen microtiter plate format, using multi-channel pipettes or a Multidrop® dispenser (Thermo Fisher Scientific, Waltham Mass.) into the wells of a microtiter plate and incubated at room temperature (rt) for 10 min. Chemical compounds under scrutiny in the assay were applied using contact-free acoustic droplet-dispensing (Echo520® Labcyte Inc., Sunnyvale Calif.) from 10 mM compound stocks in 100% DMSO, to a final concentration of 10 μM or in serial dilution series of the required concentration range. Equal amounts of DMSO without any compound were added to positive control samples, followed by an incubation step at rt for 10 min.
The enzymatic reaction was started by the addition of 5 μL of a mix of dNTPs in reaction buffer to a final concentration of 500 μM each. No nucleotide mix was added to negative control samples. The content of the wells was mixed using a VarioTeleshaker™ (Thermo Fisher Scientific, Waltham Mass.) at 1500 rpm for 45 sec after which the microtiter plate was centrifuged at 500×g for 1 min. The samples were incubated for 2 h at rt with humidity control to avoid evaporation. The detection reagents were prepared in a buffer that was composed, such that the enzymatic reaction was terminated due to chelating of Mg-ions and increased ionic strength, containing 50 mM Tris-HCl pH 7.5, 700 mM NaCl, 20 mM EDTA, and 0.01% (w/v) Tween-20. Importantly Eu-cryptate-coupled streptavidin had to be preincubated with a 100-fold molar excess of a random sequence oligonucleotide for 10 min at rt in the dark to block unspecific binding of single stranded RNA to the protein. Subsequently, the blocked streptavidin(-Eu) was mixed with the DNA-probes on ice and kept away from light until use. […]

Sequence of mitochondrial RNA polymerase (POLRMT) (Q8BKF1 42-1207): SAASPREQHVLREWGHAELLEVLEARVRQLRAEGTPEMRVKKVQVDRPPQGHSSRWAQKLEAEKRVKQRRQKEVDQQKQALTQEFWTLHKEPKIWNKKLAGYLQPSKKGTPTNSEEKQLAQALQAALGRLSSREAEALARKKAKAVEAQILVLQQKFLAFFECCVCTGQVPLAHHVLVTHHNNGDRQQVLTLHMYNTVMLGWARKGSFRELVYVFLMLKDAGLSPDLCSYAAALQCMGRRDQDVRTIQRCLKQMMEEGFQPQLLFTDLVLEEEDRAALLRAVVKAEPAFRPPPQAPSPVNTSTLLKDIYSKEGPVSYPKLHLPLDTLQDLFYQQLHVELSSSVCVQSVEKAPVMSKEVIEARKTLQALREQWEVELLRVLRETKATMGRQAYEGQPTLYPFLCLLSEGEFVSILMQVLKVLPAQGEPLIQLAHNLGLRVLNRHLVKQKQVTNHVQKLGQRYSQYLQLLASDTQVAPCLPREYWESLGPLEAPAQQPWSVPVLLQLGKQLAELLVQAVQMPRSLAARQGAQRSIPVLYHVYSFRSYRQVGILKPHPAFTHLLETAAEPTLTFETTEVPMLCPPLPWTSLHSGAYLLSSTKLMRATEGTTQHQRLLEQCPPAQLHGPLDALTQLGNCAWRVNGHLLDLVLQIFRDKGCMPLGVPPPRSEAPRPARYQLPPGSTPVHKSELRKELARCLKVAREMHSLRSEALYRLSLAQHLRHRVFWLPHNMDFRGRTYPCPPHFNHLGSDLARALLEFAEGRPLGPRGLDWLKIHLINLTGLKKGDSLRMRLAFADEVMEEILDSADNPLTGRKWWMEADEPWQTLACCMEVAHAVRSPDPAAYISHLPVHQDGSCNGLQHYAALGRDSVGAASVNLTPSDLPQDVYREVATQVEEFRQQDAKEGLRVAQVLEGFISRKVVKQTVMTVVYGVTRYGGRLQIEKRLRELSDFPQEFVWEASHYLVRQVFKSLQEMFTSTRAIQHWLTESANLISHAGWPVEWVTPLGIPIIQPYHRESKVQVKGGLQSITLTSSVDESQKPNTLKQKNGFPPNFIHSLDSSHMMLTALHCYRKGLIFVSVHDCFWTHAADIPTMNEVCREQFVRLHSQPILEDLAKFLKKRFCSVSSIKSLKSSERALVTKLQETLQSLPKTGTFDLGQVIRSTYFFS

Row | SMILES | pIC50
1 | CNC(=O)[C@H]1CCCN(C(=O)[C@@H](C)Oc2ccc3c(-c4ccccc4Cl)cc(Cl)nc3c2)C1 [Compound 96, (3S)-1-[(2R)-2-[[2-chloro-4-(2-chlorophenyl)-7-quinolyl]oxy]propanoyl]-N-methyl-piperidine-3-carboxamide] | 5.00 to 6.00
2 | COC(=O)C1CC(NC(=O)[C@@H](C)Oc2ccc3c(-c4ccccc4Cl)cc(Cl)nc3c2)C1 (stereo partly drawn) [Compound 97, methyl 3-[[(2R)-2-[[2-chloro-4-(2-chlorophenyl)-7-quinolyl]oxy]propanoyl]amino]cyclobutanecarboxylate] | 5.00 to 6.00
3 | CNC(=O)C[C@H]1CCCN(C(=O)[C@@H](C)Oc2ccc3c(-c4ccc(F)cc4Cl)cc(Cl)nc3c2)C1 [Compound 98, 2-((R)-1-((R)-2-((2-chlor-4-(2-chloro-4-fluorophenyl)quinolin-7-yl)oxy)propanoyl)piperidin-3-yl)-N-methylacetamide] | 5.00 to 6.00
4 | C[C@@H](Oc1ccc2c(-c3ccccc3Cl)cc(Cl)nc2c1)C(=O)N1CCC[C@H](C(=O)N(C)C)C1 [Compound 100, (3S)-1-[(2R)-2-[[2-chloro-4-(2-chlorophenyl)-7-quinolyl]oxy]propanoyl]-N,N-dimethyl-piperidine-3-carboxamide] | 5.00 to 6.00
5 | C[C@H](Oc1ccc2c(-c3ccccc3Cl)ccnc2c1)C(=O)N1CCC[C@@H](C(=O)O)C1 [Compound 102, (3R)-1-[(2S)-2-[[4-(2-chlorophenyl)-7-quinolyl]oxy]propanoyl]piperidine-3-carboxylic acid] | 5.00 to 6.00
6 | C[C@@H](Oc1ccc2c(-c3ccccc3Cl)ccnc2c1)C(=O)O [Compound 103, (2R)-2-[[4-(2-chlorophenyl)-7-quinolyl]oxy]propanoic acid] | 5.00 to 6.00
7 | CNC(=O)[C@H]1CCCN(C(=O)[C@@H](C)Oc2ccc3c(-c4ccc(F)cc4Cl)cc(Cl)nc3c2)C1 [Compound 105, (3S)-N-methyl-1-[(2R)-2-[[2-chloro-4-(2-chloro-4-fluoro-phenyl)-7-quinolyl]oxy]propanoyl]piperidine-3-carboxamide] | 5.00 to 6.00
8 | Cc1ccccc1-c1ccnc2cc(OCC(N)=O)ccc12 [Compound 106, 2-((4-(o-tolyl)quinolin-7-yl)oxy)acetamide] | 5.00 to 6.00
9 | C[C@@H](Oc1ccc2c(-c3ccc(F)cc3Cl)cc(Cl)nc2c1)C(=O)N1CCCCC1 [Compound 107, (2R)-2-[[2-chloro-4-(2-chloro-4-fluoro-phenyl)-7-quinolyl]oxy]-1-(1-piperidyl)propan-1-one] | 5.00 to 6.00
10 | CCOC(=O)c1cccc(NC(=O)[C@@H](C)Oc2ccc3c(-c4ccc(F)cc4Cl)ccnc3c2)c1 [Compound 108, ethyl 3-[[(2 R)-2-[[4-(2-chloro-4-fluoro-phenyl)-7-quinolyl]oxy]propanoyl]amino]benzoate] | 5.00 to 6.00
11 | C[C@@H](Oc1ccc2c(-c3ccccc3F)ccnc2c1)C(=O)N1CCC[C@H](CC(=O)O)C1 [Compound 110, 2-[(3R)-1-[(2R)-2-[[4-(2-fluorophenyl)-7-quinolyl]oxy]propanoyl]-3-piperidyl]acetic acid] | 5.00 to 6.00
12 | Cc1cc(-c2ccccc2C)c2ccc(O[C@H](C)C(=O)N3CCC[C@H](C(=O)OC(C)(C)C)C3)cc2n1 [Compound 111] | 5.00 to 6.00
13 | CC(C)c1ccccc1-c1ccnc2cc(O[C@H](C)C(=O)N3CCC[C@H](CC(=O)O)C3)ccc12 [Compound 122, 2-[(3R)-1-[(2R)-2-[[4-(2-isopropylphenyl)-7-quinolyl]oxy]propanoyl]-3-piperidyl]acetic acid] | 5.00 to 6.00
14 | C[C@@H](Oc1ccc2c(-c3ccc(F)cc3Cl)ccnc2c1)C(=O)Nc1ccc(CCO)cc1 [Compound 125, (2R)-2-[[4-(2-chloro-4-fluoro-phenyl)-7-quinolyl]oxy]-N-[4-(2-hydroxyethyl)phenyl]propanamide] | 5.00 to 6.00
15 | C[C@H](Oc1ccc2c(-c3ccc(F)cc3Cl)ccnc2n1)C(=O)N1CCC[C@H](C(=O)O)C1 [Compound 127, (3S)-1-[(2S)-2-[[5-(2-chloro-4-fluoro-phenyl)-1,8-naphthyridin-2-yl]oxy]propanoyl]piperidine-3-carboxylic acid] | 5.00 to 6.00
16 | Cc1ccsc1-c1ccnc2cc(O[C@H](C)C(=O)N3CCC[C@H](CC(=O)O)C3)ccc12 [Compound 134, 2-[(3R)-1-[(2R)-2-[[4-(3-methyl-2-thienyl)-7-quinolyl]oxy]propanoyl]-3-piperidyl]acetic acid] | 5.00 to 6.00
17 | COc1ccccc1-c1ccnc2cc(O[C@H](C)C(=O)N3CCC[C@H](CC(=O)O)C3)ccc12 [Compound 135, 2-[(3R)-1-[(2R)-2-[[4-(2-methoxyphenyl)-7-quinolyl]oxy]propanoyl]-3-piperidyl]acetic acid] | 5.00 to 6.00
18 | C[C@@H](Oc1ccc2c(-c3ccccc3C(F)(F)F)ccnc2c1)C(=O)N1CCC[C@H](CC(=O)O)C1 [Compound 136, 2-[(3R)-1-[(2R)-2-[[4-[2-(trifluoromethyl)phenyl]-7-quinolyl]oxy]propanoyl]-3-piperidyl]acetic acid] | 6.00 to 7.00
19 | C[C@@H](Oc1ccc2c(-c3ccccc3OC(F)(F)F)ccnc2c1)C(=O)N1CCC[C@H](CC(=O)O)C1 [Compound 137, 2-[(3R)-1-[(2R)-2-[[4-[2-(trifluoromethoxy)phenyl]-7-quinolyl]oxy]propanoyl]-3-piperidyl]acetic acid] | 5.00 to 6.00
20 | Cc1cccc(C)c1-c1ccnc2cc(O[C@H](C)C(=O)N3CCC[C@H](S(N)(=O)=O)C3)ccc12 [Compound 138, (3S)-1-[(2R)-2-[[4-(2,6-dimethylphenyl)-7-quinolyl]oxy]propanoyl]piperidine-3-sulfonamide] | > 7.70
21 | CC(C)(Oc1ccc2c(-c3ccccc3Cl)ccnc2c1)C(=O)N1CCC[C@H](CC(=O)O)C1 [Compound 139, 2-[(3R)-1-[2-[[4-(2-chlorophenyl)-7-quinolyl]oxy]-2-methyl-propanoyl]-3-piperidyl]acetic acid] | 5.00 to 6.00
22 | Cc1cccc(Cl)c1-c1ccnc2cc(O[C@H](C)C(=O)N3CCC[C@H](CC(=O)O)C3)ccc12 [Compound 141, 2-[(3R)-1-[(2R)-2-[[4-(2-chloro-6-methyl-phenyl)-7-quinolyl]oxy]propanoyl]-3-piperidyl]acetic acid] | > 7.70
23 | C[C@@H](Oc1ccc2c(-c3ccccc3Br)ccnc2c1)C(=O)N1CCC[C@H](CC(=O)O)C1 [Compound 142, 2-[(3R)-1-[(2R)-2-[[4-(2-bromophenyl)-7-quinolyl]oxy]propanoyl]-3-piperidyl]acetic acid] | > 7.70
24 | C[C@@H](Oc1ccc2c(-c3ccccc3C#N)ccnc2c1)C(=O)N1CCC[C@H](CC(=O)O)C1 [Compound 143, 2-[(3R)-1-[(2R)-2-[[4-(2-cyanophenyl)-7-quinolyl]oxy]propanoyl]-3-piperidyl]acetic acid] | 6.00 to 7.00
25 | C#Cc1ccccc1-c1ccnc2cc(O[C@H](C)C(=O)N3CCC[C@H](CC(=O)O)C3)ccc12 [Compound 144, 2-[(3R)-1-[(2R)-2-[[4-(2-ethynylphenyl)-7-quinolyl]oxy]propanoyl]-3-piperidyl]acetic acid] | 7.00 to 7.70
26 | C[C@@H](Oc1ccc2c(-c3ccccc3N(C)C)ccnc2c1)C(=O)N1CCC[C@H](CC(=O)O)C1 [Compound 145, 2-[(3R)-1-[(2R)-2-[[4-[2-(dimethylamino)phenyl]-7-quinolyl]oxy]propanoyl]-3-piperidyl]acetic acid] | 6.00 to 7.00
27 | C[C@@H](Oc1ccc2c(-c3c(C(F)(F)F)cccc3C(F)(F)F)ccnc2c1)C(=O)N1CCC[C@H](CC(=O)O)C1 [Compound 151, 2-[(3R)-1-[(2R)-2-[[4-[2,6-bis(trifluoromethyl)phenyl]-7-quinolyl]oxy]propanoyl]-3-piperidyl]acetic acid] | 5.00 to 6.00
